# Measurements reported in patent US20250144067A1, “PERSONALIZED STARVATION THERAPY FOR CANCER” (Faeth Therapeutics, Inc., priority 2021, published 2025).
# Where a name gives a salt, the structure may show the parent alone. Read-outs that look alike come from different tables or passages of the source.
# Assays:
# [1] = tested on: NCI-H292 lung cancer cells; experiment: FDA drug screening, complete media vs cholesterol-free media without statin (TABLE 1); type: cell-based, human
# [2] = tested on: NCI-H292 lung cancer cells; experiment: FDA drug screening, complete media vs cholesterol-free media with simvastatin (TABLE 2); type: cell-based, human
# [3] = Complete minus Cholesterol-free, >0 enhanced anti-cancer activity, about 0 neutral, <0 antagonist
# [4] = NCI-H292 cells, cholesterol-free media without statin
# [5] = NCI-H292 cells, FDA drug library screen, cholesterol-free media with simvastatin 0.04 μM
# [6] = NCI-H292 cells, FDA drug library screen, complete media
# [7] = complete media minus cholesterol-free media + simvastatin, >0 enhanced anti-cancer activity, about 0 neutral, <0 antagonist
# [8] = NCI-H292 cells, cholesterol-free media without statin, FDA drug library screen
# [9] = NCI-H292 cells, complete media, FDA drug library screen
# [10] = NCI-H292 cells, cholesterol-free media with simvastatin 0.04 μM, cell growth value in FDA drug screen
# [11] = NCI-H292 cells, complete media, cell growth value in FDA drug screen
# [12] = complete vs cholesterol-free media, >0 enhanced anti-cancer activity, about 0 neutral, <0 antagonist
# [13] = NCI-H292 cells, drug in cholesterol-free media with simvastatin 0.04 μM
# [14] = NCI-H292 cells, drug in complete media
# [15] = complete media vs cholesterol-free media + simvastatin (0.04 μM), >0 enhanced anti-cancer activity, about 0 neutral, <0 antagonist
# [16] = Complete minus Cholesterol-free, greater than 0 enhanced anti-cancer activity, about 0 neutral, below 0 antagonists
# [17] = NCI-H292 cells in cholesterol-free media without statin
# [18] = NCI-H292 cells in complete media
# [19] = Complete minus Cholesterol-free, greater than 0 enhanced anti-cancer activity, about 0 neutral, below 0 antagonist
# [20] = NCI-H292 cells, FDA drug library screen, cholesterol-free media without statin
# [21] = NCI-H292 cells, FDA library drug in cholesterol-free media with simvastatin 0.04 μM
# [22] = NCI-H292 cells, cholesterol-free media with simvastatin 0.04 μM, FDA drug library screen (TABLE 2)
# [23] = NCI-H292 cells, complete media, FDA drug library screen (TABLE 2)
# [24] = complete media minus cholesterol-free media + simvastatin (0.04 μM), >0 enhanced anti-cancer activity, about 0 neutral, <0 antagonist
# [25] = complete vs cholesterol-free media, greater than 0 enhanced anti-cancer activity, about 0 neutral, below 0 antagonists
# [26] = NCI-H292 cells, FDA library drug in complete media
compound,measurement,setting,value
CN1CCC(OC(c2ccccc2)c2ccccc2)CC1 [Diphenylpyraline (hydrochloride)],Difference,[1]; [3],−0.22
same,Cholesterol-free,[1]; [4],0.9623
same,Complete,"[1]; NCI-H292 cells, complete media",0.7446
same,Cholesterol-free media + simvastatin (0.04 μM),[2]; [5],0.641
same,Complete Media,[2]; [6],1.367
same,Difference,[2]; [7],0.73
O.O.O.O.O=P([O-])(O)C(Cl)(Cl)P(=O)([O-])O.[Na+].[Na+] [Clodronate (disodium tetrahydrate)],Difference,[1]; [3],−0.05
same,Cholesterol-free,[1]; [8],1.08
same,Complete,[1]; [9],1.034
same,Cholesterol-free media + simvastatin (0.04 μM),[2]; [10],0.8439
same,Complete Media,[2]; [11],0.9326
same,Difference,[2]; [7],0.09
CC1CCC(C(C)C)C(O)C1 (stereo not drawn) [Menthol],Cholesterol-free,[1]; [8],0.9443
same,Complete,[1]; [9],1.129
same,Difference,[1]; [12],0.19
same,Cholesterol-free media + simvastatin (0.04 μM),[2]; [13],1.031
same,Complete Media,[2]; [14],0.8642
same,Difference,[2]; [15],−0.17
CN(C)CCCN1c2ccccc2CCc2ccc(Cl)cc21 [Clomipramine (hydrochloride)],Difference,[1]; [16],−0.54
same,Cholesterol-free,[1]; [17],1.47
same,Complete,[1]; [18],0.9281
same,Cholesterol-free media + simvastatin (0.04 μM),[2]; [10],0.9105
same,Complete Media,[2]; [11],1.028
same,Difference,[2]; [7],0.12
Deferoxamine (mesylate),Difference,[1]; [19],−0.12
same,Cholesterol-free,[1]; [20],0.9976
same,Complete,[1]; [6],0.8739
same,Cholesterol-free media + simvastatin (0.04 μM),[2]; [21],1.454
same,Difference,[2]; [15],−0.43
C=C[C@H]1C[N@@]2CC[C@H]1C[C@@H]2[C@@H](O)c1ccnc2ccc(OC)cc12 [Quinidine hydrochloride monohydrate],Difference,[1]; [3],0.01
same,Cholesterol-free,[1]; [8],1.211
same,Complete,[1]; [9],1.222
same,Cholesterol-free media + simvastatin (0.04 μM),[2]; [22],1.46
same,Complete Media,[2]; [23],1.402
same,Difference,[2]; [24],−0.06
O=C(O)c1ccc(-n2nc(-c3ccccc3O)nc2-c2ccccc2O)cc1 [Deferasirox],Cholesterol-free,[1]; [4],1.441
same,Complete,"[1]; NCI-H292 cells, complete media",0.9894
same,Difference,[1]; [25],−0.45
same,Cholesterol-free media + simvastatin (0.04 μM),[2]; [13],1.22
same,Complete Media,[2]; [14],0.9596
same,Difference,[2]; [15],−0.26
CN1CCC(=C2c3ccccc3Sc3ccccc32)CC1 [Pimethixene maleate],Cholesterol-free,[1]; [4],1.492
same,Complete,"[1]; NCI-H292 cells, complete media",1.142
same,Difference,[1]; [25],−0.35
same,Cholesterol-free media + simvastatin (0.04 μM),[2]; [13],1.097
same,Complete Media,[2]; [14],0.9153
same,Difference,[2]; [15],−0.18
NS(=O)(=O)c1cc(C2(O)NC(=O)c3ccccc32)ccc1Cl (stereo not drawn) [Chlorthalidone],Difference,[1]; [3],−0.22
same,Cholesterol-free,[1]; [4],1.209
same,Complete,"[1]; NCI-H292 cells, complete media",0.9927
same,Cholesterol-free media + simvastatin (0.04 μM),[2]; [13],1.215
same,Complete Media,[2]; [14],0.9907
same,Difference,[2]; [15],−0.22
c1cnc(N2CCN(Cc3ccc4c(c3)OCO4)CC2)nc1 [Piribedil],Cholesterol-free,[1]; [8],0.8521
same,Complete,[1]; [9],1.367
same,Difference,[1]; [12],0.51
same,Cholesterol-free media + simvastatin (0.04 μM),[2]; [13],1.189
same,Complete Media,[2]; [14],0.9878
same,Difference,[2]; [15],−0.20
CC[C@@H](CO)NCCN[C@@H](CC)CO [Ethambutol (dihydrochloride)],Cholesterol-free,[1]; [8],0.4829
same,Complete,[1]; [9],1.206
same,Difference,[1]; [12],0.72
same,Cholesterol-free media + simvastatin (0.04 μM),[2]; [21],1.428
same,Complete Media,[2]; [26],1.016
same,Difference,[2]; [15],−0.41
C[C@@H]1C[C@H]2[C@@H]3CCC4=CC(=O)C=C[C@]4(C)[C@@]3(F)[C@@H](O)C[C@]2(C)[C@@]1(O)C(=O)CO [Dexamethasone],Difference,[1]; [3],0.07
same,Cholesterol-free,[1]; [8],0.7411
same,Complete,[1]; [9],0.8107
same,Cholesterol-free media + simvastatin (0.04 μM),[2]; [5],0.6107
same,Complete Media,[2]; [6],0.7971
same,Difference,[2]; [7],0.19
C=C1CC[C@@H]2[C@](C)(CO)[C@H](O)CC[C@@]2(C)[C@@H]1C/C=C1/C(=O)OC[C@H]1O [Andrographolide],Cholesterol-free,[1]; [8],0.8912
same,Complete,[1]; [9],0.9868
same,Difference,[1]; [12],0.10
same,Cholesterol-free media + simvastatin (0.04 μM),[2]; [5],1.859
same,Difference,[2]; [24],−0.94
O=C(c1ccc(F)cc1)C1CCN(CCn2c(=O)[nH]c3ccccc3c2=O)CC1 [Ketanserin],Difference,[1]; [16],−0.47
same,Cholesterol-free,[1]; [17],1.183
same,Complete,[1]; [18],0.7093
same,Cholesterol-free media + simvastatin (0.04 μM),[2]; [10],1.439
same,Complete Media,[2]; [11],1.462
same,Difference,[2]; [7],0.02
O=c1[nH]c(=O)n([C@H]2C[C@H](O)[C@@H](CO)O2)cc1C(F)(F)F [Trifluridine],Difference,[1]; [19],−0.14
same,Cholesterol-free,[1]; [20],0.2875
same,Complete,[1]; [6],0.145
same,Cholesterol-free media + simvastatin (0.04 μM),[2]; [22],0.1119
same,Complete Media,[2]; [23],0.1066
same,Difference,[2]; [24],−0.01
CCCCN1CCCCC1C(=O)Nc1c(C)cccc1C (stereo not drawn) [Bupivacaine (hydrochloride)],Difference,[1]; [19],−0.15
same,Cholesterol-free,[1]; [20],1.158
same,Complete,[1]; [6],1.01
same,Cholesterol-free media + simvastatin (0.04 μM),[2]; [13],1.059
same,Complete Media,[2]; [14],0.8922
same,Difference,[2]; [15],−0.17
Cc1cc(C#N)cc(C)c1Oc1nc(Nc2ccc(C#N)cc2)nc(N)c1Br [Etravirine],Difference,[1]; [16],−0.49
same,Cholesterol-free,[1]; [17],1.424
same,Complete,[1]; [18],0.9362
same,Cholesterol-free media + simvastatin (0.04 μM),[2]; [22],0.8346
same,Complete Media,[2]; [23],0.8071
same,Difference,[2]; [24],−0.03
COC(=O)C1=C(C#N)NC(C)=C(C(=O)OC(C)C)C1c1cccc([N+](=O)[O-])c1 (stereo not drawn) [Nilvadipine],Difference,[1]; [3],−0.27
same,Cholesterol-free,[1]; [4],1.059
same,Complete,"[1]; NCI-H292 cells, complete media",0.7875
same,Cholesterol-free media + simvastatin (0.04 μM),[2]; [13],1.579
same,Complete Media,[2]; [14],1.393
same,Difference,[2]; [15],−0.19
[O-][n+]1ccccc1[S-].[O-][n+]1ccccc1[S-].[Zn+2] [Zinc Pyrithione],Cholesterol-free,[1],0.0139
same,Complete,[1],0.007475
same,Difference,[1],−0.01
same,Cholesterol-free media + simvastatin (0.04 μM),[2],0.004251
same,Complete Media,[2],−0.04835
same,Difference,[2],−0.05
OC[C@@H](O)[C@@H](O)[C@H](O)[C@@H](O)CO [D-Sorbitol],Cholesterol-free,[1]; [8],1.006
same,Complete,[1]; [9],1.32
same,Difference,[1]; [12],0.31
same,Cholesterol-free media + simvastatin (0.04 μM),[2]; [5],1.142
same,Complete Media,[2]; [6],1.023
same,Difference,[2]; [15],−0.12
COc1ccc(CCN(C)CCCC(C#N)(c2ccc(OC)c(OC)c2)C(C)C)cc1OC (stereo not drawn) [Verapamil (hydrochloride)],Cholesterol-free,[1],0.9873
same,Complete,[1],0.8558
same,Difference,[1],−0.13
same,Cholesterol-free media + simvastatin (0.04 μM),[2],1.071
same,Complete Media,[2],1.013
same,Difference,[2],−0.06
CNCc1ccc(-c2[nH]c3cc(F)cc4c3c2CCNC4=O)cc1 [Rucaparib],Difference,[1]; [3],−0.02
same,Cholesterol-free,[1]; [8],0.9041
same,Complete,[1]; [9],0.881
same,Cholesterol-free media + simvastatin (0.04 μM),[2]; [21],1.04
same,Complete Media,[2]; [26],0.7044
same,Difference,[2]; [15],−0.34
CCN1CCN(c2cc(-c3ccc(F)cc3)c3c(n2)CCCCCC3)CC1 [Blonanserin],Difference,[1]; [3],−0.06
same,Cholesterol-free,[1]; [8],1.144
same,Complete,[1]; [9],1.088
same,Complete Media,[2]; [23],0.8939
same,Difference,[2]; [24],−0.05
CCCc1nc(C(C)(C)O)c(C(=O)O)n1Cc1ccc(-c2ccccc2-c2nnn[nH]2)cc1 [Olmesartan],Cholesterol-free,[1]; [4],1.93
same,Complete,"[1]; NCI-H292 cells, complete media",1.465
same,Difference,[1]; [25],−0.46
same,Cholesterol-free media + simvastatin (0.04 μM),[2]; [13],1.131
same,Complete Media,[2]; [14],0.942
same,Difference,[2]; [15],−0.19
C[C@]12C=CC(=O)N[C@@H]1CC[C@@H]1[C@@H]2CC[C@]2(C)[C@@H](C(=O)Nc3cc(C(F)(F)F)ccc3C(F)(F)F)CC[C@@H]12 [Dutasteride],Cholesterol-free,[1],0.7204
same,Complete,[1],0.8443
same,Difference,[1],0.12
same,Cholesterol-free media + simvastatin (0.04 μM),[2],1.633
same,Complete Media,[2],1.205
same,Difference,[2],−0.43
CC(C)CN(C[C@@H](OP(=O)(O)O)[C@H](Cc1ccccc1)NC(=O)O[C@H]1CCOC1)S(=O)(=O)c1ccc(N)cc1 [Fosamprenavir (Calcium Salt)],Difference,[1]; [19],−0.11
same,Cholesterol-free,[1]; [20],1.061
same,Complete,[1]; [6],0.9495
same,Cholesterol-free media + simvastatin (0.04 μM),[2]; [10],0.8511
same,Complete Media,[2]; [11],0.8779
same,Difference,[2]; [7],0.03
CCCCCCc1ccc(O)cc1O [Hexylresorcinol],Difference,[1]; [3],0.00
same,Cholesterol-free,[1]; [8],1.034
same,Complete,[1]; [9],1.036
same,Cholesterol-free media + simvastatin (0.04 μM),[2]; [13],1.514
same,Complete Media,[2]; [14],1.344
same,Difference,[2]; [15],−0.17
Cc1cnc(C(=O)O)c[n+]1[O-] [Acipimox],Cholesterol-free,[1]; [4],1.354
same,Complete,"[1]; NCI-H292 cells, complete media",1.008
same,Difference,[1]; [25],−0.35
same,Cholesterol-free media + simvastatin (0.04 μM),[2]; [5],1.352
same,Complete Media,[2]; [6],1.26
same,Difference,[2]; [15],−0.09
C=CCN1CCc2nc(N)sc2CC1 [Talipexole dihydrochloride],Difference,[1]; [19],−0.09
same,Cholesterol-free,[1]; [20],1.016
same,Complete,[1]; [6],0.9282
same,Cholesterol-free media + simvastatin (0.04 μM),[2]; [13],1.333
same,Complete Media,[2]; [14],1.079
same,Difference,[2]; [15],−0.25
